SMILES strings stand for the structures. A value given as a limit tells only on which side of the number the result lay.

For experiment [1], the system named is HL-60. Nature of the experiment: Antiproliferative activity against human HL60 cells after 24 to 48 hrs by MTT assay. In kind it is functional, cell-based.
For experiment [2], the system named is COLO 205. Nature of the experiment: Antiproliferative activity against human COLO205 cells after 24 to 48 hrs by MTT assay. In kind it is functional, cell-based.
For experiment [3], the system named is HCT-116. Kind of experiment: Antiproliferative activity against human HCT116 cells after 24 to 48 hrs by MTT assay. In kind it is functional, cell-based.
Experiment [4] has as its system MCF7. Kind of experiment: Antiproliferative activity against human MCF7 cells after 24 to 48 hrs by MTT assay. In kind it is functional, cell-based.
The subject of experiment [5] is A549. Kind of experiment: Antiproliferative activity against human A549 cells after 24 to 48 hrs by MTT assay. The format is functional, cell-based.
The nature of experiment [6]: Antiproliferative activity against human FR2 cells after 24 to 48 hrs by MTT assay. In kind it is cell-based.

`COc1ccc(S(=O)(=O)NCc2cn(Cc3nc4ccccc4c(=O)n3-c3ccccc3C)nn2)cc1`: the IC50 in experiment [1], in experiment [2], in experiment [3], in experiment [4], in experiment [5] and in experiment [6] was above 10 µM in each case.

Take `Cc1ccccc1-n1c(Cn2cc(-c3ccccc3)nn2)nc2ccccc2c1=O`: the IC50 in experiment [1], in experiment [2], in experiment [3], in experiment [4], in experiment [5] and in experiment [6] was above 10 µM each time.

As for `Cc1ccc(NCc2cn(Cc3nc4cccc(C)c4c(=O)n3-c3ccccc3C(F)(F)F)nn2)cc1C`, the IC50 in experiment [1], in experiment [2], in experiment [3], in experiment [4], in experiment [5] and in experiment [6] was above 10 µM throughout.

For the compound `Cc1ccccc1-n1c(Cn2cc(-c3ccccc3F)nn2)nc2ccccc2c1=O`, the IC50 in experiment [1], in experiment [2], in experiment [3], in experiment [4], in experiment [5] and in experiment [6] was above 10 µM each time.

In the case of `COc1ccc(-c2cn(Cc3nc4cccc(C)c4c(=O)n3-c3ccccc3C(F)(F)F)nn2)c(C)c1`, the IC50 in experiment [1], in experiment [2], in experiment [3], in experiment [4], in experiment [5] and in experiment [6] was above 10 µM throughout.

Regarding `COc1ccc(OCc2cn(Cc3nc4ccccc4c(=O)n3-c3ccccc3C)nn2)cc1`, the IC50 in experiment [1], in experiment [2], in experiment [3], in experiment [4], in experiment [5] and in experiment [6] was above 10 µM in each case.

`Cc1ccccc1-n1c(Cn2cc(-c3ccc(-c4ccccc4)cc3)nn2)nc2ccccc2c1=O`: the IC50 in experiment [1], in experiment [2], in experiment [3], in experiment [4], in experiment [5] and in experiment [6] was above 10 µM each time.

As to `Cc1cc(OCc2cn(Cc3nc4cccc(C)c4c(=O)n3-c3ccccc3C)nn2)ccc1Cl`, the half-maximal inhibitory concentration (IC50) in experiment [1], in experiment [2], in experiment [3], in experiment [4], in experiment [5] and in experiment [6] was above 10 µM throughout.

Regarding `Cc1ccccc1-n1c(Cn2cc(-c3cccnc3)nn2)nc2cccc(C)c2c1=O`, the IC50 in experiment [1], in experiment [2], in experiment [3], in experiment [4], in experiment [5] and in experiment [6] was above 10 µM throughout.

With `Cc1ccccc1-n1c(Cn2cc(-c3cc(C(F)(F)F)cc(C(F)(F)F)c3)nn2)nc2ccccc2c1=O`, the IC50 in experiment [1], in experiment [2], in experiment [3], in experiment [4], in experiment [5] and in experiment [6] was above 10 µM each time.

On to `Cc1ccccc1-n1c(Cn2cc(-c3ccccc3F)nn2)nc2cccc(C)c2c1=O`, for which the IC50 in experiment [1], in experiment [2], in experiment [3], in experiment [4], in experiment [5] and in experiment [6] was above 10 µM each time.

On to `Cc1ccc(-c2cn(Cc3nc4cccc(C)c4c(=O)n3-c3ccccc3C)nn2)cc1`, for which the IC50 in experiment [1], in experiment [2], in experiment [3], in experiment [4], in experiment [5] and in experiment [6] was above 10 µM throughout.

Consider `Cc1ccccc1-n1c(Cn2cc(-c3ccc(-c4ccccc4)cc3)nn2)nc2cccc(C)c2c1=O`, for which the IC50 in experiment [1], in experiment [2], in experiment [3], in experiment [4], in experiment [5] and in experiment [6] was above 10 µM in each case.

For the compound `Cc1ccccc1-n1c(Cn2cc(-c3ccc(Br)cc3)nn2)nc2ccccc2c1=O`, the IC50 in experiment [1], in experiment [2], in experiment [3], in experiment [4], in experiment [5] and in experiment [6] was above 10 µM in each case.

Consider `Cc1ccccc1-n1c(Cn2cc(CNS(=O)(=O)c3ccc(F)cc3F)nn2)nc2cccc(C)c2c1=O`, for which the IC50 in experiment [1], in experiment [2], in experiment [3], in experiment [4], in experiment [5] and in experiment [6] was above 10 µM throughout.

With `Cc1cccc(OCc2cn(Cc3nc4ccccc4c(=O)n3-c3ccccc3C)nn2)c1`, the IC50 in experiment [1], in experiment [2], in experiment [3], in experiment [4], in experiment [5] and in experiment [6] was above 10 µM in each case.

Regarding `Cc1ccccc1-n1c(Cn2cc(COc3cccc(F)c3)nn2)nc2ccccc2c1=O`, the IC50 in experiment [1], in experiment [2], in experiment [3], in experiment [4], in experiment [5] and in experiment [6] was above 10 µM in each case.

Turning to `Cc1ccccc1-n1c(Cn2cnc3c(N)ncnc32)nc2cccc(C)c2c1=O`, the 50% inhibitory concentration (IC50) is 1 µM in experiment [1]; above 10 µM in experiment [2]; above 10 µM in experiment [3]; above 10 µM in experiment [4]; above 10 µM in experiment [5]; above 10 µM in experiment [6].

On to `Cc1ccccc1-n1c(Cn2cc(-c3ccccc3C(F)(F)F)nn2)nc2ccccc2c1=O`, for which the IC50 in experiment [1], in experiment [2], in experiment [3], in experiment [4], in experiment [5] and in experiment [6] was above 10 µM in each case.

Consider `Cc1ccccc1-n1c(Cn2cc(CNS(=O)(=O)c3ccccc3)nn2)nc2cccc(C)c2c1=O`, for which the IC50 in experiment [1], in experiment [2], in experiment [3], in experiment [4], in experiment [5] and in experiment [6] was above 10 µM in each case.

Turning to `Cc1ccccc1-n1c(Cn2cc(-c3ccccc3C(F)(F)F)nn2)nc2cccc(C)c2c1=O`, the IC50 in experiment [1], in experiment [2], in experiment [3], in experiment [4], in experiment [5] and in experiment [6] was above 10 µM each time.

For the compound `Cc1cccc2nc(Cn3cc(-c4ccccc4)nn3)n(-c3ccccc3C(F)(F)F)c(=O)c12`, the IC50 in experiment [1], in experiment [2], in experiment [3], in experiment [4], in experiment [5] and in experiment [6] was above 10 µM each time.

With `Cc1cccc2nc(Cn3cc(-c4cccnc4)nn3)n(-c3ccccc3C(F)(F)F)c(=O)c12`, the IC50 in experiment [1], in experiment [2], in experiment [3], in experiment [4], in experiment [5] and in experiment [6] was above 10 µM each time.

For `Cc1ccccc1-n1c(Cn2cc(-c3ccc(Br)cc3)nn2)nc2cccc(C)c2c1=O`, the IC50 in experiment [1], in experiment [2], in experiment [3], in experiment [4], in experiment [5] and in experiment [6] was above 10 µM each time.

Turning to `Cc1ccccc1-n1c(Cn2cc(-c3ccc(OC(F)(F)F)cc3)nn2)nc2cccc(C)c2c1=O`, the IC50 in experiment [1], in experiment [2], in experiment [3], in experiment [4], in experiment [5] and in experiment [6] was above 10 µM throughout.

(Values after ChEMBL document CHEMBL4219103, “Design and synthesis of 1,4-substituted 1H-1,2,3-triazolo-quinazolin-4(3H)-ones by Huisgen 1,3-dipolar cycloaddition with PI3Kγ isoform selective activity” (Bioorg Med Chem Lett, 2018).)
